Assay results as given in publication PMC9317670, “Temporal and Wash-Out Studies Identify Medicines for Malaria Venture Pathogen Box Compounds with Fast-Acting Activity against Both Trypanosoma cruzi and Trypanosoma brucei” (Microorganisms, 2022).
Like-named read-outs stand apart in the source and are kept apart here.

Key:
[1] = system: T. cruzi Tulahuen strain parasites in 3T3 host cells; assay: T. cruzi 48 h image-based assay; assay type: cell-based, Trypanosoma cruzi
[2] = system: T.b. brucei; set-up: method as in PMID 26258172; settings: ref [53]; read-out: IC50 T.b. brucei, previously reported; cited from earlier work
[3] = system: T. cruzi Tulahuen strain parasites in 3T3 host cells; set-up: method as in PMID 28674055; settings: liquid stocks; ref [16]; read-out: IC50 T. cruzi in the previous studies; cited from earlier work
[4] = system: T. cruzi; set-up: method as in PMID 25583723; settings: 96 h; ref [54]; read-out: IC50 T. cruzi following 96 h incubation; cited from earlier work
[5] = system: T. cruzi; assay: T. cruzi temporal image-based assay, 24 h exposure; assay type: cell-based, Trypanosoma cruzi; settings: for IC50: NA = not active at given concentration, read-out: IC50 24 h T. cruzi
[6] = system: T.b. brucei; assay: T.b. brucei temporal viability (time-kill) assay, 48 h, PrestoBlue; assay type: cell-based, Trypanosoma brucei brucei; settings: for IC50: read-out: IC50 48 h T.b. brucei; for Emax: read-out: Emax 48 h T.b. brucei (converted)
[7] = system: HEK293 cells; assay: HEK293 cytotoxicity assay; assay type: cell-based, human; settings: HEK293, 72 h; NA = not active; highest dose 79 µM unless given
[8] = system: T. cruzi and T.b. brucei; assay: Speed of action and cidality classification from temporal and wash off assays; assay type: cell-based, Trypanosoma cruzi, Trypanosoma brucei brucei; settings: for Speed of Action (FA/SA): TC = T. cruzi, TBB = T.b. brucei; for Speed of Action (Table 5): prioritised compounds, Fast/Slow
[9] = system: T.b. brucei bloodstream 427 strain parasites; assay: T.b. brucei 72 h REDOX-based (resazurin) viability assay; assay type: cell-based, Trypanosoma brucei brucei; settings: for SI (T.b. brucei) HEK: selectivity index in relation to HEK293 cells; for SI (T.b. brucei) (HEP): selectivity index in relation to HEPG2 cells
[10] = system: bovine peripheral blood mononuclear cells (PBMCs); set-up: method as in PMID 30771616; settings: 24 h incubation; ref [55]; read-out: IC50 against bovine PBMCs; cited from earlier work
[11] = system: HEPG2 cells; assay: HEPG2 cytotoxicity assay; assay type: cell-based, human; settings: HEPG2, 72 h, NA = not active, highest dose 79 µM unless given
[12] = system: T. cruzi; assay: T. cruzi compound wash off assay (48 h with compound, wash off, 72 h without); assay type: cell-based, Trypanosoma cruzi; settings: T. cruzi; for IC50 / Emax: 48 h incubation, wash off, further 72 h; for IC50: read-out: IC50 Wash Off; for Fold Change of IC50, wash off vs 48 h: IC50 from 48 h incubation to IC50 following wash off and further 72 h
[13] = system: T.b. brucei; assay: T.b. brucei temporal viability (time-kill) assay, 24 h, PrestoBlue; assay type: cell-based, Trypanosoma brucei brucei; settings: for IC50: read-out: IC50 24 h T.b. brucei; for Emax: read-out: Emax 24 h T.b. brucei (converted)
Method: Time-kill assays was undertaken as previously described, using the REDOX reagent PrestoBlue® [24]. […] Control compounds were added at the same concentrations at outlined for the resazurin-based assays.

[14] = system: T.b. rhodesiense STIB900; assay: T.b. rhodesiense STIB900 assay, 72 h; assay type: cell-based; settings: Trypanosoma brucei, read-out: IC50 T. bR (T.b. rhodesiense)
[15] = system: T.b. gambiense STIB930; assay: T.b. gambiense STIB930 assay, 72 h; assay type: cell-based; settings: Trypanosoma brucei, unit inferred, read-out: IC50 T. Bg STIB930 (T.b. gambiense)
[16] = in vivo, species not stated; ref [10]; cited from earlier work
[17] = system: CYP1A2; set-up: method as in earlier work; settings: Pathogen Box in vitro DMPK data; ref [10]; cited from earlier work
[18] = biological target: T. cruzi recombinant CYP51 (TcCYP51) (Trypanosoma cruzi, UniProt Q7Z1V1); assay: biochemical
Method: The inhibitory properties of compounds against T. cruzi recombinant CYP51 (TcCYP51) was determined using an in vitro assay as previously described [33, 41]. Compounds which inhibited T. cruzi in an image-based assay were tested against TcCYP51 in log concentrations (100, 33, 10, 3.3, 1.0, 0.33, 0.1 and 0 µM), with one replicate per dose, as previously described [41]. The control compound posaconazole was incubated at the same concentrations as the test compounds, over two replicates.
Of the fast-acting compounds, if there was more than one compound with activity against T. cruzi, one representative compound from each chemical class was selected. […] Slow-acting compounds were also tested for activity against TcCYP51. The criteria defining a compound with TcCYP51 activity required that the IC50 value was within a log difference to posaconazole, as previously reported [33].

[19] = ref [8]; cited from earlier work
[20] = control drugs; ref DrugBank; cited from earlier work
[21] = system: T. cruzi; set-up: method as in PMID 29016289; settings: treated for 40 days; ref [4]; cited from earlier work
[22] = Trypanosoma cruzi, TULAHUEN, 48 h; read-out: Emax % (T. cruzi) (converted)
[23] = Trypanosoma cruzi, TULAHUEN, 48 h; read-out: IC50 (T. cruzi)
[24] = selectivity index in relation to 3T3 host cells; highest dose 3T3 73 µM
[25] = selectivity index in relation to HEK293 cells
[26] = selectivity index in relation to HEPG2 cells

T. cruzi recombinant CYP51 (TcCYP51), sequence (Q7Z1V1 whole entry): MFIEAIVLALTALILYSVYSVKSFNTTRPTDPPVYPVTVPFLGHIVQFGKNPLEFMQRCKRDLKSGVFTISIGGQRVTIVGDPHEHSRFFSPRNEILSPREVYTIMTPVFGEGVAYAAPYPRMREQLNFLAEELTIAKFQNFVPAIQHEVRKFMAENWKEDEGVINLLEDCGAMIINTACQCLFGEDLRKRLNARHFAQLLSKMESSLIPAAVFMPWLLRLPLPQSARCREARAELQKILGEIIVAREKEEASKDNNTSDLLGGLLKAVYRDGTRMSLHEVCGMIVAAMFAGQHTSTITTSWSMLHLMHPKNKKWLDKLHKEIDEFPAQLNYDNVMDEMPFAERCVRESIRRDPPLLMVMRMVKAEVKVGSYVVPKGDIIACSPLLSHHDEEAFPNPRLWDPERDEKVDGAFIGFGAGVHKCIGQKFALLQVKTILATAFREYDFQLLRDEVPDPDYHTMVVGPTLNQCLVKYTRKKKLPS

| SMILES | Speed of Action (FA/SA) [8] | Speed of Action (Table 5) [8] | Emax ([5]; Trypanosoma cruzi) [%] | IC50 ([5]; Trypanosoma cruzi) [nM] | Emax [1, 22] [%] | IC50 [1, 23] [nM] | SI (T. cruzi) 3T3 [1, 24] | SI (T. cruzi) HEK [1, 25] | SI (T. cruzi) (HEP) [1, 26] | Emax ([6]; Trypanosoma brucei) [%] | IC50 ([6]; Trypanosoma brucei) [nM] | IC50 ([14]; STIB900, 72 h, unit inferred) [nM] | Emax ([9]; Trypanosoma brucei, 72 h) [%] | IC50 ([9]; Trypanosoma brucei, 72 h) [nM] | SI (T.b. brucei) HEK [9] | SI (T.b. brucei) (HEP) [9] | IC50 [15] [nM] | Half-life [16] [h] | CYP1A2 induction [17] | Fold Change of IC50, wash off vs 48 h [12] [fold] | also measured |
| --- | --- | --- | --- | --- | --- | --- | --- | --- | --- | --- | --- | --- | --- | --- | --- | --- | --- | --- | --- | --- | --- |
| CC(C)=CCC/C(C)=C/CNCCNC1C2CC3CC(C2)CC1C3 (stereo not drawn) [MMV687273] | – | – | – | – | – | – | – | – | – | – | – | – | – | – | – | – | – | – | – | – | IC50 ([1]; Trypanosoma cruzi, TULAHUEN, 48 h, read-out: IC50 (T. cruzi)): 13000 nM; IC50 [2]: 5000 nM; IC50 [3]: 5400 nM; IC50 [4]: 500 to 1000 nM |
| O=C(Nc1ccc(F)c(-c2nc3ncc(-c4ccccc4)cc3[nH]2)c1)N1CCCC1 [MMV 688372] | SA (TC) | Slow | – | – | – | – | – | – | – | – | – | – | – | – | – | – | – | – | – | – | Emax 24 h T. cruzi [5]: 75%; IC50 [5]: 1600 ± 64 nM; Emax % (T. cruzi) ([1]; 48 h): 99%; Emax % (T. cruzi) ([1]; 48 h; listed as MMV688372): > 95%; IC50 ([1]; 48 h; read-out: IC50 (T. cruzi)): 130 ± 9.7 nM; Emax 48 h T.b. brucei [6]: 100%; IC50 [6]: 13 ± 0.32 nM; IC50 [7]: 1800 ± 50.2 nM; Emax % (T.b. brucei) ([9]; 72 h): 99%; IC50 ([9]; 72 h): 14 ± 2.4 nM; IC50 [10]: 5300 nM; IC50 ([11]; read-out: IC50 (HEP) (converted)): 3600 nM; IC50 [12]: 130 ± 2.9 nM; Emax 24 h T.b. brucei [13]: 83%; IC50 [13]: 34 ± 2 nM |
| Cc1ccc(S(=O)(=O)Nc2ccc(CN3CCN(C(=O)c4cccc(C#N)c4)CC3)cc2)cc1 [MMV 689028] | FA (Fast-acting (FA) = IC50 value can be determined following 24 h incubation, <10-fold difference in the IC50 value from 24 to 72 h) | Fast | 91 | 1100 ± 430 | 100 | 700 ± 130 | >104 | >113 (>113) | >113 (>113) | 99 | 110 ± 3.2 | 280 ± 11 | 99 | 120 ± 30 | >658 (>658) | >658 (>658) | 48 ± 1.1 | 6.8 | induced CYP1A2 activity | 0.86 | IC50 HEK [7]: no activity; IC50 (HEP) [11]: no activity; Emax ([12]; Trypanosoma cruzi): 99%; IC50 ([12]; Trypanosoma cruzi): 390 ± 20 nM; Inhibition of TcCYP51 (in words) ([18]; criterion: IC50 within a log difference to posaconazole): nor exhibited TcCYP51 activity; Emax ([13]; Trypanosoma brucei): 78%; IC50 ([13]; Trypanosoma brucei): 720 ± 380 nM |
| COc1ccc(S(=O)(=O)Nc2ccc(CN3CCN(C(=O)c4cccc(C#N)c4)CC3)cc2)cc1 [MMV 689029] | FA (Fast-acting (FA) = IC50 value can be determined following 24 h incubation, <10-fold difference in the IC50 value from 24 to 72 h) | Fast | 90 | 3700 ± 260 | 100 | 1200 ± 67 | >61 | >66 (>66) | >66 (>66) | 100 | 400 ± 23 | 630 ± 110 | 99 | 420 ± 53 | >188 (>188) | >188 (>188) | 400 ± 120 | 2.4 | induced CYP1A2 activity | 0.73 | Emax ([12]; Trypanosoma cruzi): 98%; IC50 ([12]; Trypanosoma cruzi): 880 ± 56 nM; IC50 ([18]; top concentration 100 µM): > 100000 nM; Emax ([13]; Trypanosoma brucei): 89%; IC50 ([13]; Trypanosoma brucei): 980 ± 340 nM |
| Nc1nc(N)nc(Nc2ccc([As]3SCC(CO)S3)cc2)n1 (stereo not drawn) [Melarsoprol, reference compound] | – | – | – | – | – | – | – | – | – | – | – | – | – | – | – | – | – | – | – | – | Fatality among patients in which encephalopathy develops [19]: 50%; Post-treatment reactive encephalopathy, share of all treated cases [19]: 5–10%; IC50 ([14]; 72 h): 15 ± 4 nM; LogP [20]: 1.3 |
| CC1(C)OB(O)c2cc(NC(=O)c3ccc(F)cc3C(F)(F)F)ccc21 [SCYX-7158] | – | – | – | – | – | – | – | – | – | – | – | – | – | – | – | – | – | – | – | – | Cure of mice infected with T. cruzi [21]: 100% |
